Source: patent publication US20210061800A1, “COMPOUNDS FOR TREATING EYE DISEASES AND METHODS THEREOF” (Agency for Science, Technology and Research, priority 2017, published 2021)

Experiments:
PDGFR-WT [1] = target: T1, PDGFR-WT (Homo sapiens, UniProt P09619); assay: PDGFRβ signaling in HEK293 cells (Western blot: PDGFRβ autophosphorylation, Shp2 phosphorylation); assay type: cell-based; parameters: expressed in transfected cells; host or cells: HEK293; settings: 20 ng/ml PDGF
Procedure: FIG. 5 illustrates a Western-blot analysis result of Ex 1 (a compound of the present invention), in relation to inhibit PDGFRβ signaling in HEK293 cells expressing PDGFRβ.
Human Embryonic kidney cells (HEK293) were constructed to express human PDGFRWT under the control of constitutive CMV promoter. Cells were grown in the presence of 20 ng/ml PDGF (the ligand for the PDGFRβ) to activate the PDGFRβ. Different concentration of Ex 1 were added to study its effect on the PDGFRβ-mediated signaling. Autophosphorylation of PDGFRβ and Shp2 phosphorylation were monitored by Western blotting were used as the markers for PDGFRβ signaling. B Actin was used as an internal control.
Target sequence in this assay (P09619 33-1106): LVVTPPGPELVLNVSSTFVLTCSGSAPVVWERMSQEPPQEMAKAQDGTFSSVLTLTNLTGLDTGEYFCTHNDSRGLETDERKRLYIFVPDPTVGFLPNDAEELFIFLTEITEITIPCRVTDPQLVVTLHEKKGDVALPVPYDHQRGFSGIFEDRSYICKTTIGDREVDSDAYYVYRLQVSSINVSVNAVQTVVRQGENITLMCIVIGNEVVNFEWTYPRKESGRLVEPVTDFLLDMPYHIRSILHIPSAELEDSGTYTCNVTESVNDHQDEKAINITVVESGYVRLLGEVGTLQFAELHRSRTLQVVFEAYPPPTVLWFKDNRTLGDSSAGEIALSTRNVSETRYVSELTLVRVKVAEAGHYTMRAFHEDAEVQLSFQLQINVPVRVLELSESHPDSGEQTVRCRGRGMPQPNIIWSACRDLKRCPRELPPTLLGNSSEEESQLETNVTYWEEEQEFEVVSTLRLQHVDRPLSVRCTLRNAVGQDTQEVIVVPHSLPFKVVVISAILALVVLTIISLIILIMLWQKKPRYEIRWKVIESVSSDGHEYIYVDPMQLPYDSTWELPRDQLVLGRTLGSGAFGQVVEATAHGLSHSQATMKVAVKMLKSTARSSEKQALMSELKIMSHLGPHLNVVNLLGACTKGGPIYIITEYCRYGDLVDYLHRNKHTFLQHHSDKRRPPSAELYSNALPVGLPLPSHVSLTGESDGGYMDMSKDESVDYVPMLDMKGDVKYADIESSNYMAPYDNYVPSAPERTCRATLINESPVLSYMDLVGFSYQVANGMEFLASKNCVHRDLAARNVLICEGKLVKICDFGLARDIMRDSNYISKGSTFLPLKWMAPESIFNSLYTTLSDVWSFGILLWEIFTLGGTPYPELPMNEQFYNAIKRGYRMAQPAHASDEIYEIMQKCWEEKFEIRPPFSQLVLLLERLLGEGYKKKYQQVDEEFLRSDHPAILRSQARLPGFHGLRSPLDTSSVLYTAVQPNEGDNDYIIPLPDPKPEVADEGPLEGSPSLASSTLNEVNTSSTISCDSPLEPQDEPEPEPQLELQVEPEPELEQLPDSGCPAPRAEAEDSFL

human PDGFRβWT = assay: Humanized yeast screen: prevention of PDGFR-induced death of yeast cells; settings: 10 μM; compared to DMSO or Gleevec
Procedure: A humanized yeast screen was performed. Yeast cells carrying stably integrated GAL-PDGFRβ were first grown in YEP+raff medium and then seeded into fresh YEP+raff+GAL medium to induce expression of human PDGFRβWT.

PDGFR-WT [2] = target: T1, PDGFR-WT; assay: PDGFRβ-dependent growth of Ba/F3 cells; assay type: cell-based; settings: inhibition of PDGFRβ-dependent growth of Ba/F3 cells; read-out: effective concentration-50 (EC50) against PDGFR-WT
Procedure: Based on in silico modelling and simulation, different derivatives of the diphenyl oxyacetamide based compounds (formula (I)) were synthesized. The potency of the compounds were measured in terms of its ability to inhibit the PDGFRβ-dependent growth of Ba/F3 cells.
FIG. 6 illustrates work flow for synthesis of G6 derivatives Effective Concentration-50 (EC50) as determined using Ba/F3 cell.
Target sequence in this assay (P09619 554-1106 limits assumed, change not shown): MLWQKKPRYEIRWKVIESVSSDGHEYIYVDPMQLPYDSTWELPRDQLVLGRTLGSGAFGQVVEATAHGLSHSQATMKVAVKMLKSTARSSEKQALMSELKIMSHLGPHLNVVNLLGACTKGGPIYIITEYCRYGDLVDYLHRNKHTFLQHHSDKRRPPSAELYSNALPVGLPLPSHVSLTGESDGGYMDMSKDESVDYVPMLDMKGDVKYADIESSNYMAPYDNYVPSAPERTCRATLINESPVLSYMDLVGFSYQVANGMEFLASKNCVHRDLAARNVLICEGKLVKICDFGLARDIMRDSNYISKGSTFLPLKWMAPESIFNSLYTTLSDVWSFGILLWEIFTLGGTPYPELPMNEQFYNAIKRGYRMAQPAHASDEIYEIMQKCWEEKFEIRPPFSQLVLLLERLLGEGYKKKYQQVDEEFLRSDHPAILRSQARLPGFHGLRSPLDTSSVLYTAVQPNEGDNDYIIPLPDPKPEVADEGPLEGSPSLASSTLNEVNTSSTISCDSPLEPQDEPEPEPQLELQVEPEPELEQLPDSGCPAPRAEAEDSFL

human PDGFRβ = target: T2, human PDGFRβ (Homo sapiens, UniProt P09619); assay: PDGFRβ signaling in Ba/F3 cells (Western blot); assay type: cell-based; settings: BaF3 cells expressing PDGFRβ, PDGF-induced
T2 construct: expressed in transfected cells; host or cells: Ba/F3
Procedure: FIG. 7 illustrates a Western-blot analysis result of Ex 2 and Ex 3 (compounds of the present invention) to inhibit PDGFRβ signaling in BaF3 cells expressing PDGFRβ.
Ba/F3 cells were constructed to express human PDGFRβ under the control of CMV promoter. The PDGFRβ signaling was induced by addition of the ligand PDGF. The effect of […] and Ex 3 was added to the cell cultures at different concentrations to determine their efficacy to inhibit the PDGFRβ signaling as reflected by the inhibition of PDGFRβ autophosphorylation and the phosphorylation of Shp2, a downstream effector of the PDGFRβ signal pathway.
FIG. 7 illustrates a Western-blot analysis result, illustrating the efficacy of compounds of the present invention to inhibit PDGFRβ signaling in BaF3 cells expressing PDGFRβ.

[3] = test system: Choroid membrane preparations; assay: Ex vivo organoid model of angiogenesis (choroid membrane preparations in Matrigel); assay type: cell-based, mice; settings: mouse choroid in Matrigel
Procedure: Choroid membrane preparations isolated from young mice were cultured in Matrigel. Matrigel containing these preparations were layered with growth medium containing various concentrations of Ex 2 and Ex 3. The ‘blood vessel’ growth was monitored and quantified using a specialized image analysis software.
FIG. 10 illustrates the efficacy of the compounds of the present invention in an ex vivo organoid model of angiogenesis. Compounds of the present invention show anti-angiogenesis in organoid model.

[4] = test system: Choroid Neo-Vascularization; assay: Laser CNV mouse model for wet-AMD; assay type: in vivo; settings: injection into one eye, imaged for two weeks
Procedure: In vivo testing of Ex 3 in CNV (Choroid Neo-Vascularization)-laser mouse model was performed. Eyes of young mice were treated with laser to create choroid damage which results in the leakage of blood vessels (seen as light areas of FIG. 11). In each mouse, one eye was injected with a predetermined amount of Ex 3 while the other eye remained untreated to serve as ‘treatment(−)’ control. Mouse eyes were imaged intermittently for two weeks. The efficacy of the compound Ex 3 is indicated by its ability to prevent the leakage of the blood vessels (reduction or disappearance of the bright green areas).
FIG. 11 illustrates the efficacy of a compound of the present invention in Laser CNV mouse model for wet-AMD.

T2 sequence (P09619 33-1106): as the sequence (P09619 33-1106) above

Structure (SMILES) | inhibition of PDGFRWT-mediated signaling (PDGFR-WT [1]) | cell growth (OD reading) of humanized yeast expressing PDGFRβ (human PDGFRβWT) | EC50 (PDGFR-WT [2]) | activity against PDGFRβ-WT signaling (human PDGFRβ) | anti-angiogenesis efficacy ('blood vessel' growth) [3] | efficacy in preventing leakage of blood vessels [4]
Cc1ccc(NC(=O)COc2ccc(-n3cnnn3)cc2)cc1C [Ex 1, N-(3,4-dimethylphenyl)-2-[4-(tetrazol-1-yl)phenoxy]acetamide] | efficiently inhibits the PDGFRWT-mediated signaling | allows cell-growth more efficiently compared to DMSO or Gleevec |  |  |  | 
Cc1ccc(NC(=O)COc2ccc(-c3cnc4ccccn34)cc2)cc1C [Ex 2, N-(3,4-dimethylphenyl)-2-[4-imidazo[1,2-a]pyridin-3-ylphenoxy]acetamide] |  |  | 0.01 µM | show activities against PDGFRβ-WT | better anti-angiogenesis efficacy then Ex 3 | 
Cc1ccc(NC(=O)COc2ccc(-c3cnc4ccccn34)cc2)cc1C(F)(F)F [Ex 3, N-[4-methyl-3-(trifluoromethyl)phenyl]-2-[4-imidazo[1,2-a]pyridin-3-ylphenoxy]acetamide] |  |  | 0.01 µM | show activities against PDGFRβ-WT |  | efficacy
